US20030082194A1, “Compositions and methods for diagnosis and therapy of malignant mesothelioma” (priority 2000, published 2003)

How the values were obtained:
[1] = test system: targets incubated with WT1 peptides (EL-4); assay: CTL chromium release assay, peptide-incubated targets; type: cell-based, mouse; conditions: for generation of peptide specific CTL following immunization: mice immunized with peptide, spleen cells stimulated in vitro, chromium release; for lysis of targets incubated with the relevant peptide by peptide specific CTL: chromium release assay
Procedure: (§1) Following immunization, spleen cells were stimulated in vitro and tested for the ability to lyse targets incubated with WT1 peptides. CTL were evaluated with a standard chromium release assay (Chen et al., 1994). […] target cells were incubated at 37° C. with 150 μCi of sodium ^51Cr for 90 min., in the presence or absence of specific peptides. Cells were washed three times and resuspended in RPMI with 5% fetal bovine serum. For the assay, 10^4 51Cr-labeled target cells were incubated with different concentrations of effector cells in a final volume of 200 μl in U-bottomed 96-well plates. Supernatants were removed after 4-7 hrs at 37° C., and the percentage specific lysis was determined by the formula:
(§2) % Specific lysis=100×(experimental release−spontaneous release)/(maximum release-spontaneous release).
(§3) P117-139, a peptide with motifs appropriate for binding to class I and class II MHC, was identified as described above using TSITES and BIMAS HLA peptide binding prediction analyses. Mice were immunized as described in Example 3. Following immunization, spleen cells were stimulated in vitro and tested for the ability to lyse targets incubated with WT1 peptides, as well as WT1 positive and negative tumor cells. CTL were evaluated with a standard chromium release assay.
Following immunization, spleen cells were stimulated in vitro with each of the 4 peptides and tested for ability to lyse targets incubated with WT1 peptides.

[2] = test system: mouse B6 class I antigens (D^b or K^b molecules on RMA-S cells); assay: Peptide binding to C57Bl/6 murine MHC on RMA-S cells, flow cytometry (Tables 48, 49); type: cell-based
Procedure: In brief, RMA-S cells were cultured for 7 hrs at 26° C. in complete medium supplemented with 1% FCS. A total of […] RMA-S cells were added into each well of a 24-well plate and incubated either alone or with the designated peptide (25 μg/ml) for 16 hrs at 26° C. and additional 3 hrs at 37° C. in complete medium. Cells were then washed three times and stained with fluorescein isothiocyanate-conjugated anti Db or anti-Kb antibody (PharMingen, San Diego, CA). Labeled cells were washed twice, resuspended and fixed in 500 μl of PBS with 1% paraformaldehyde and analyzed for fluorescence intensity in a flow cytometer (Becton-Dickinson FACSCalibur®). The percentage of increase of D^b or K^b molecules on the surface of the RMA-S cells was measured by increased mean fluorescent intensity of cells incubated with peptide compared with that of cells incubated in medium alone.

[3] = test system: WT1 positive tumor cell lines (TRAMP-C, BLK-SV40); assay: CTL chromium release assay, WT1 positive tumor cell lines; type: cell-based, mouse
Procedure: as §1, §2
as §3, with “assay. […]” for “assay.”

[4] = test system: T cells / spleen cells of immunized B6 mice; assay: Proliferative T cell response, thymidine incorporation assay after immunization of B6 mice with WT1 peptides; type: cell-based, mouse; conditions: for stimulation index (SI), proliferative T cell response: B6 mice immunized with WT1 peptides, thymidine incorporation, FIG. 3
[5] = Systemic histopathological and toxicological effects of WT1 protein immunization in mice; type: in vivo, mouse
Source text: (§4) The purpose of this example is to analyze the immunogenicity and potential systemic histopathological and toxicological effects of WT1 protein immunization in a multiple dose titration in mice.
(§5) The experimental design for immunization of mice with WT1 protein is outlined in Table 51.
Special emphasis was put on evaluation of potential hematopoietic toxicity. The myeloid/erythroid ratio in sternum and femur marrow was normal.

WT1 = assay: Immunogenicity of WT1 protein immunization with MPL-SE, multiple dose titration in mice (Table 51); type: in vivo, mouse; conditions: MPL-SE adjuvant; doses 25 μg, 100 μg to 1000μg WT1 protein; female C57/B6 mice
Source text: as §4, §5

[6] = even on an outpatient basis; cited from earlier work
[7] = molecular target: Mouse B6 (C57Bl/6) MHC class I antigens on RMA-S cells (D^b or K^b) (mouse (C57Bl/6)); assay: RMA-S MHC stabilisation, peptide 25 ug/ml, FITC anti-Db or anti-Kb, flow cytometry (MFI increase over medium alone)
[8] = molecular target: Mouse B6 (C57Bl/6) MHC class I antigens on RMA-S cells (D^b or K^b) (mouse (C57Bl/6)); assay: binding of 9-mer peptide to mouse B6 (H-2b) class I; RMA-S stabilisation assay as in Example 4
[9] = peptide 25 μg/ml, percentage of increase of Db or Kb molecules (mean fluorescent intensity) vs medium alone, Table 48
[10] = 9-mer peptides within p117-139, mouse B6 class I antigens, Table 49
[11] = mice immunized with WT1 protein

Q: Which “generation of peptide specific CTL following immunization” value [1] does the source give for “ALLPAVPSL (listed as Homo sapiens) [SEQ ID NO:34]” here?
A: peptide specific CTL lines were generated

Q: What about the “Binding Affinity to Mouse MHC Class I” value [2, 9] of the same molecule?
A: 2.2%

Q: What does the source list for “CMTWNQMNL (listed as Homo sapiens, listed as Mus musculus) [SEQ ID NO:49]”?
A: lysis of targets incubated with the relevant peptide by peptide specific CTL [1]: lysed targets incubated with the p235-243 peptides; generation of peptide specific CTL following immunization ([1]; listed as p235-243): peptide specific CTL lines were generated; Binding Affinity to Mouse MHC Class I [2, 9]: 33.6%; lysis of WT1 positive tumor cells by peptide specific CTL [3]: failed to lyse cell lines that expressed WT1 proteins

Q: Which “stimulation indices (SI), proliferative T cell responses to the immunizing peptides” value ([4]; Vaccine A, bulk lines, peptide 25 μg/ml, 96 hr, FIG. 4A) does the source give for “GATLKGVAAGSSSSVKWTE (listed as Homo sapiens) [p244-262]” here?
A: No proliferative response

Q: Which results are given for “NAPYLPSCL (listed as Homo sapiens) [SEQ ID NO:144]”?
A: lysis of targets incubated with 9-mer peptide by CTL generated by immunization with p117-139 ([1]; FIG. 10A): lysed; lysis of targets incubated with the relevant peptide by peptide specific CTL [1]: demonstrated peptide specific lysis; Binding Affinity to Mouse MHC Class I [2, 10]: 79%; binding to H-2b class I molecules / class I MHC molecules ([2]; peptide 25 μg/ml): shown to bind to H-2b class I molecules; lysis of WT1 positive tumor cells by peptide specific CTL [3]: showed lysis of a WT1 positive tumor cell line

Q: With “NLYQMTSQL (listed as Homo sapiens) [SEQ ID NO:147]” as the molecule, how does the “Binding Affinity to Mouse MHC Class I” value [2, 9] read?
A: 5.8%

Q: With P117-125 (PSQASSGQA) [Peptide P117-125] as the molecule, how does the “Binding Affinity to Mouse MHC Class I” value [2, 10] read?
A: 2%

Q: With P118-126 (SQASSGQAR) [Peptide P118-126] as the molecule, how does the “Binding Affinity to Mouse MHC Class I” value [2, 10] read?
A: 2%

Q: For P119-127 (QASSGQARM) [Peptide P119-127], which “Binding Affinity to Mouse MHC Class I” value [2, 10] is on record?
A: 2%

Q: For P120-128 (ASSGQARMF) [Peptide P120-128], which “Binding Affinity to Mouse MHC Class I” value [2, 10] is on record?
A: 1%

Q: With P121-129 (SSGQARMFP) [Peptide P121-129] as the molecule, how does the “Binding Affinity to Mouse MHC Class I” value [2, 10] read?
A: 1%

Q: With P124-132 (QARMFPNAP) [Peptide P124-132] as the molecule, how does the “Binding Affinity to Mouse MHC Class I” value [2, 10] read?
A: 1%

Q: For P125-133 (ARMFPNAPY) [Peptide P125-133], which “Binding Affinity to Mouse MHC Class I” value [2, 10] is on record?
A: 1%

Q: Which “Binding Affinity to Mouse MHC Class I” value [2, 10] does the source give for P127-135 (MFPNAPYLP) [Peptide P127-135] here?
A: 2%

Q: For P128-136 (FPNAPYLPS) [Peptide P128-136], which “Binding Affinity to Mouse MHC Class I” value [2, 10] is on record?
A: 1%

Q: For P129-137 (PNAPYLPSC) [Peptide P129-137], which “Binding Affinity to Mouse MHC Class I” value [2, 10] is on record?
A: 1%

Q: Which “Binding Affinity to Mouse MHC Class I” value [2, 10] does the source give for P131-139 (APYLPSCLE) [Peptide P131-139] here?
A: 1%

Q: Which “stimulation index (SI), proliferative T cell response” value [4] does the source give for “RDLNALLPAVPSLGGGG (listed as Homo sapiens) [p6-22]” here?
A: 2.3

Q: And the “proliferation of Vaccine A specific T cell line after single peptide in vitro stimulation” value ([4]; FIG. 5A, 5C)?
A: proliferation to p6-22 with no response to p117-139

Q: Which results are given for “SCLESQPAI (listed as Homo sapiens) [SEQ ID NO:198]”?
A: generation of peptide specific CTL following immunization [1]: peptide specific CTL lines were generated; Binding Affinity to Mouse MHC Class I [2, 9]: 52%

Q: For “VRRVSGVAPTLVRS (listed as Mus musculus) [P299-313]”, which “stimulation index (SI), proliferative T cell response” value [4] is on record?
A: 3.3

Q: For “WT1 protein: WT1 protein used for vaccination of mice with MPL-SE as adjuvant”, which “histological evidence for toxicity in tissues” value ([5]; adrenal gland, brain, colon, heart, kidney, liver, lung, marrow, spleen and other listed tissues) is on record?
A: No histological evidence for toxicity

Q: What about the “blood cell counts and blood chemistry (BUN, creatinine, bilirubin, albumin, globulin)” value [5, 11] of the same molecule?
A: within the normal range

Q: And the “myeloid/erythroid ratio in sternum and femur marrow” value [5, 11]?
A: normal

Q: What about the “systemic histopathological or toxicological effects of immunization” value ([5]; mice, multiple dose titration) of the same molecule?
A: No systemic histopathological or toxicological effects

Q: What about the WT1-specific antibody response (WT1) of the same molecule?
A: elicited a strong WT1-specific antibody response

Q: And the “cellular T-cell responses” value (WT1)?
A: cellular T-cell responses

Q: Which “dose known to be safe for human use” value [6] does the source give for monophosphoryl lipid A [MPL] here?
A: 100 μg/m^2

Q: For p221-229 (YSSDNLYQM), which “Binding Affinity to Mouse MHC Class I” value [2, 9] is on record?
A: 0.8%

Q: With p228-236 (QMTSQLECM) as the molecule, how does the “Binding Affinity to Mouse MHC Class I” value [2, 9] read?
A: 1.2%

Q: With p329-337 (GCNKRYFKL) as the molecule, how does the “Binding Affinity to Mouse MHC Class I” value [2, 9] read?
A: 1.2%

B1: WT1 peptide p235-243 (…) (peptide)
peptide: CMTWNQMNL
Q: For B1, which Binding Affinity to Mouse MHC Class I (% increase of Db or Kb on RMA-S cells) [7] is on record?
A: 33.6%

B2: WT1 peptide human p136-144 (…) (peptide)
peptide: SCLESQPAI
Q: For B2, which Binding Affinity to Mouse MHC Class I (% increase of Db or Kb on RMA-S cells) [7] is on record?
A: 52%

B3: WT1 peptide human p10-18 (…) (peptide)
peptide: ALLPAVPSL
Q: With B3 as the molecule, how does the Binding Affinity to Mouse MHC Class I (% increase of Db or Kb on RMA-S cells) [7] read?
A: 2.2%

B4: WT1 peptide p225-233 (…) (peptide)
peptide: NLYQMTSQL
Q: For B4, which Binding Affinity to Mouse MHC Class I (% increase of Db or Kb on RMA-S cells) [7] is on record?
A: 5.8%

B5: WT1 peptide p329-337 (…) (peptide)
peptide: GCNKRYFKL
Q: With B5 as the molecule, how does the Binding Affinity to Mouse MHC Class I (% increase of Db or Kb on RMA-S cells) [7] read?
A: 1.2%

B6: WT1 peptide p221-229 (…) (peptide)
peptide: YSSDNLYQM
Q: With B6 as the molecule, how does the Binding Affinity to Mouse MHC Class I (% increase of Db or Kb on RMA-S cells) [7] read?
A: 0.8%

B7: WT1 peptide p228-236 (…) (peptide)
peptide: QMTSQLECM
Q: With B7 as the molecule, how does the Binding Affinity to Mouse MHC Class I (% increase of Db or Kb on RMA-S cells) [7] read?
A: 1.2%

B8: WT1 peptide P117-125 (…) (peptide)
peptide: PSQASSGQA
Q: Which Binding Affinity to Mouse MHC Class I (%) [8] does the source give for B8 here?
A: 2%

B9: WT1 peptide P118-126 (…) (peptide)
peptide: SQASSGQAR
Q: For B9, which Binding Affinity to Mouse MHC Class I (%) [8] is on record?
A: 2%

B10: WT1 peptide P119-127 (…) (peptide)
peptide: QASSGQARM
Q: Which Binding Affinity to Mouse MHC Class I (%) [8] does the source give for B10 here?
A: 2%

B11: WT1 peptide P120-128 (…) (peptide)
peptide: ASSGQARMF
Q: For B11, which Binding Affinity to Mouse MHC Class I (%) [8] is on record?
A: 1%

B12: WT1 peptide P121-129 (…) (peptide)
peptide: SSGQARMFP
Q: With B12 as the molecule, how does the Binding Affinity to Mouse MHC Class I (%) [8] read?
A: 1%

B13: WT1 peptide P124-132 (…) (peptide)
peptide: QARMFPNAP
Q: Which Binding Affinity to Mouse MHC Class I (%) [8] does the source give for B13 here?
A: 1%

B14: WT1 peptide P125-133 (…) (peptide)
peptide: ARMFPNAPY
Q: For B14, which Binding Affinity to Mouse MHC Class I (%) [8] is on record?
A: 1%

B15: WT1 peptide P127-135 (…) (peptide)
peptide: MFPNAPYLP
Q: Which Binding Affinity to Mouse MHC Class I (%) [8] does the source give for B15 here?
A: 2%

B16: WT1 peptide P128-136 (…) (peptide)
peptide: FPNAPYLPS
Q: With B16 as the molecule, how does the Binding Affinity to Mouse MHC Class I (%) [8] read?
A: 1%

B17: WT1 peptide P129-137 (…) (peptide)
peptide: PNAPYLPSC
Q: Which Binding Affinity to Mouse MHC Class I (%) [8] does the source give for B17 here?
A: 1%

B18: WT1 peptide P130-138 (…) (peptide)
peptide: NAPYLPSCL
Q: For B18, which Binding Affinity to Mouse MHC Class I (%) [8] is on record?
A: 79%

B19: WT1 peptide P131-139 (…) (peptide)
peptide: APYLPSCLE
Q: Which Binding Affinity to Mouse MHC Class I (%) [8] does the source give for B19 here?
A: 1%
